Measured values published in PubChem BioAssay (NCI).
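Where inhibition never reached the appropriate level, the endpoint shown equals the highest concentration tested. Otherwise, values were interpolated linearly from a five-concentration, 48-hour dose response in 96-well plates. TGI: concentration producing complete growth inhibition.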

Tests used:
Assay in all cases: growth of human tumour cells (NCI), 48 h
786-0 renal = test system: 786-0 renal
A498 renal = test system: A498 renal
A549 NSCLC = test system: A549 NSCLC
ACHN renal = test system: ACHN renal
BT-549 breast = test system: BT-549 breast
CAKI-1 renal = test system: CAKI-1 renal
CCRF-CEM leukemia = test system: CCRF-CEM leukemia
COLO 205 colon = test system: COLO 205 colon
DU-145 prostate = test system: DU-145 prostate
EKVX NSCLC = test system: EKVX NSCLC
HCC-2998 colon = test system: HCC-2998 colon
HCT-116 colon = test system: HCT-116 colon
HCT-15 colon = test system: HCT-15 colon
HL-60(TB) leukemia = test system: HL-60(TB) leukemia
HOP-62 NSCLC = test system: HOP-62 NSCLC
HOP-92 NSCLC = test system: HOP-92 NSCLC
HS 578T breast = test system: HS 578T breast
HT29 colon = test system: HT29 colon
IGROV1 ovarian = test system: IGROV1 ovarian
K-562 leukemia = test system: K-562 leukemia
KM12 colon = test system: KM12 colon
LOX IMVI melanoma = test system: LOX IMVI melanoma
M14 melanoma = test system: M14 melanoma
MCF7 breast = test system: MCF7 breast
MDA-MB-231 breast = test system: MDA-MB-231 breast
MDA-MB-435 = test system: MDA-MB-435
MDA-N = test system: MDA-N
MOLT-4 leukemia = test system: MOLT-4 leukemia
NCI-H226 lung = test system: NCI-H226 lung
NCI-H23 lung = test system: NCI-H23 lung
NCI-H460 lung = test system: NCI-H460 lung
NCI/ADR-RES ovarian = test system: NCI/ADR-RES ovarian
OVCAR-3 ovarian = test system: OVCAR-3 ovarian
OVCAR-4 ovarian = test system: OVCAR-4 ovarian
OVCAR-5 ovarian = test system: OVCAR-5 ovarian
OVCAR-8 ovarian = test system: OVCAR-8 ovarian
PC-3 prostate = test system: PC-3 prostate
RPMI-8226 leukemia = test system: RPMI-8226 leukemia
RXF 393 renal = test system: RXF 393 renal
SF-268 CNS = test system: SF-268 CNS
SF-295 CNS = test system: SF-295 CNS
SF-539 CNS = test system: SF-539 CNS
SK-MEL-2 melanoma = test system: SK-MEL-2 melanoma
SK-MEL-28 melanoma = test system: SK-MEL-28 melanoma
SK-MEL-5 melanoma = test system: SK-MEL-5 melanoma
SK-OV-3 ovarian = test system: SK-OV-3 ovarian
SN12C renal = test system: SN12C renal
SNB-19 CNS = test system: SNB-19 CNS
SNB-75 CNS = test system: SNB-75 CNS
SR leukemia = test system: SR leukemia
T-47D breast = test system: T-47D breast
TK-10 renal = test system: TK-10 renal
U251 CNS = test system: U251 CNS
UACC-257 melanoma = test system: UACC-257 melanoma
UACC-62 melanoma = test system: UACC-62 melanoma
UO-31 renal = test system: UO-31 renal
NCI-H522 lung = test system: NCI-H522 lung
SW-620 colon = test system: SW-620 colon
MALME-3M melanoma = test system: MALME-3M melanoma

Structure (SMILES): Cc1c(C(=O)OCc2ccccc2)[n+](=O)c2ccccc2n1[O-]
- TGI (786-0 renal): > 100 µM
- TGI (A498 renal): 94.3 µM
- TGI (A549 NSCLC): 70.7 µM
- TGI (ACHN renal): > 100 µM
- TGI (BT-549 breast): > 100 µM
- TGI (CAKI-1 renal): 80.5 µM
- TGI (CCRF-CEM leukemia): 0.199 µM
- TGI (COLO 205 colon): 37.6 µM
- TGI (DU-145 prostate): 47.8 µM
- TGI (EKVX NSCLC): 91.5 µM
- TGI (HCC-2998 colon): > 100 µM
- TGI (HCT-116 colon): 65.6 µM
- TGI (HCT-15 colon): > 100 µM
- TGI (HL-60(TB) leukemia): 77.4 µM
- TGI (HOP-62 NSCLC): 61.2 µM
- TGI (HOP-92 NSCLC): 13.4 µM
- TGI (HS 578T breast): 72.9 µM
- TGI (HT29 colon): > 100 µM
- TGI (IGROV1 ovarian): 34.1 µM
- TGI (K-562 leukemia): > 100 µM
- TGI (KM12 colon): > 100 µM
- TGI (LOX IMVI melanoma): 44.8 µM
- TGI (M14 melanoma): > 100 µM
- TGI (MCF7 breast): > 100 µM
- TGI (MDA-MB-231 breast): 64.8 µM
- TGI (MDA-MB-435): 75.2 µM
- TGI (MDA-N): > 100 µM
- TGI (MOLT-4 leukemia): 43 µM
- TGI (NCI-H226 lung): 57.1 µM
- TGI (NCI-H23 lung): 95.7 µM
- TGI (NCI-H460 lung): > 100 µM
- TGI (NCI/ADR-RES ovarian): 93.8 µM
- TGI (OVCAR-3 ovarian): > 100 µM
- TGI (OVCAR-4 ovarian): 85 µM
- TGI (OVCAR-5 ovarian): > 100 µM
- TGI (OVCAR-8 ovarian): > 100 µM
- TGI (PC-3 prostate): > 100 µM
- TGI (RPMI-8226 leukemia): 30.5 µM
- TGI (RXF 393 renal): 69.1 µM
- TGI (SF-268 CNS): > 100 µM
- TGI (SF-295 CNS): > 100 µM
- TGI (SF-539 CNS): > 100 µM
- TGI (SK-MEL-2 melanoma): > 100 µM
- TGI (SK-MEL-28 melanoma): > 100 µM
- TGI (SK-MEL-5 melanoma): 53.6 µM
- TGI (SK-OV-3 ovarian): > 100 µM
- TGI (SN12C renal): > 100 µM
- TGI (SNB-19 CNS): > 100 µM
- TGI (SNB-75 CNS): 56.5 µM
- TGI (SR leukemia): 47.3 µM
- TGI (T-47D breast): 57.2 µM
- TGI (TK-10 renal): 84.6 µM
- TGI (U251 CNS): > 100 µM
- TGI (UACC-257 melanoma): 56.1 µM
- TGI (UACC-62 melanoma): > 100 µM
- TGI (UO-31 renal): 86.3 µM

Structure (SMILES): O=C(NCCc1[nH]nc2c1C(=O)C=C(Nc1ccccc1)C2=O)OCc1ccccc1
- TGI (786-0 renal): > 100 µM
- TGI (A498 renal): > 100 µM
- TGI (A549 NSCLC): > 100 µM
- TGI (ACHN renal): > 100 µM
- TGI (BT-549 breast): > 100 µM
- TGI (CAKI-1 renal): > 100 µM
- TGI (CCRF-CEM leukemia): > 100 µM
- TGI (COLO 205 colon): > 100 µM
- TGI (DU-145 prostate): > 100 µM
- TGI (EKVX NSCLC): > 100 µM
- TGI (HCT-116 colon): > 100 µM
- TGI (HCT-15 colon): > 100 µM
- TGI (HL-60(TB) leukemia): > 100 µM
- TGI (HOP-92 NSCLC): > 100 µM
- TGI (HS 578T breast): > 100 µM
- TGI (HT29 colon): > 100 µM
- TGI (IGROV1 ovarian): > 100 µM
- TGI (KM12 colon): > 100 µM
- TGI (LOX IMVI melanoma): > 100 µM
- TGI (M14 melanoma): > 100 µM
- TGI (MCF7 breast): > 100 µM
- TGI (MDA-MB-231 breast): > 100 µM
- TGI (MDA-MB-435): > 100 µM
- TGI (MDA-N): > 100 µM
- TGI (MOLT-4 leukemia): > 100 µM
- TGI (NCI-H226 lung): > 100 µM
- TGI (NCI-H23 lung): > 100 µM
- TGI (NCI-H460 lung): > 100 µM
- TGI (NCI-H522 lung): > 100 µM
- TGI (NCI/ADR-RES ovarian): > 100 µM
- TGI (OVCAR-3 ovarian): > 100 µM
- TGI (OVCAR-4 ovarian): > 100 µM
- TGI (OVCAR-5 ovarian): > 100 µM
- TGI (OVCAR-8 ovarian): > 100 µM
- TGI (PC-3 prostate): > 100 µM
- TGI (RPMI-8226 leukemia): > 100 µM
- TGI (RXF 393 renal): > 100 µM
- TGI (SF-268 CNS): > 100 µM
- TGI (SF-295 CNS): > 100 µM
- TGI (SF-539 CNS): > 100 µM
- TGI (SK-MEL-2 melanoma): > 100 µM
- TGI (SK-MEL-5 melanoma): > 100 µM
- TGI (SK-OV-3 ovarian): > 100 µM
- TGI (SN12C renal): > 100 µM
- TGI (SNB-19 CNS): > 100 µM
- TGI (SNB-75 CNS): > 100 µM
- TGI (SR leukemia): > 100 µM
- TGI (SW-620 colon): > 100 µM
- TGI (T-47D breast): > 100 µM
- TGI (TK-10 renal): > 100 µM
- TGI (U251 CNS): > 100 µM
- TGI (UACC-257 melanoma): > 100 µM
- TGI (UACC-62 melanoma): > 100 µM
- TGI (UO-31 renal): > 100 µM

Structure (SMILES): COc1cc(C=O)cc(/C=N/N=C/c2ccccc2O)c1O
- TGI (786-0 renal): 50.6 µM
- TGI (A498 renal): > 100 µM
- TGI (A549 NSCLC): > 100 µM
- TGI (ACHN renal): 67.4 µM
- TGI (BT-549 breast): 52.6 µM
- TGI (CAKI-1 renal): 49 µM
- TGI (CCRF-CEM leukemia): 70.3 µM
- TGI (COLO 205 colon): 82.9 µM
- TGI (DU-145 prostate): > 100 µM
- TGI (HCT-116 colon): 67.3 µM
- TGI (HCT-15 colon): > 100 µM
- TGI (HL-60(TB) leukemia): 0.0201 µM
- TGI (HOP-62 NSCLC): > 100 µM
- TGI (HOP-92 NSCLC): 39.8 µM
- TGI (HS 578T breast): 10.3 µM
- TGI (HT29 colon): > 100 µM
- TGI (IGROV1 ovarian): > 100 µM
- TGI (KM12 colon): > 100 µM
- TGI (LOX IMVI melanoma): 54.5 µM
- TGI (M14 melanoma): 56.8 µM
- TGI (MALME-3M melanoma): 18.1 µM
- TGI (MCF7 breast): > 100 µM
- TGI (MDA-MB-231 breast): 76.4 µM
- TGI (MDA-MB-435): > 100 µM
- TGI (MDA-N): > 100 µM
- TGI (MOLT-4 leukemia): 2.05 µM
- TGI (NCI-H226 lung): 58.6 µM
- TGI (NCI-H23 lung): 54 µM
- TGI (NCI-H460 lung): > 100 µM
- TGI (NCI-H522 lung): > 100 µM
- TGI (NCI/ADR-RES ovarian): > 100 µM
- TGI (OVCAR-3 ovarian): 65.9 µM
- TGI (OVCAR-4 ovarian): > 100 µM
- TGI (PC-3 prostate): 85.9 µM
- TGI (RPMI-8226 leukemia): 45.3 µM
- TGI (RXF 393 renal): > 100 µM
- TGI (SF-268 CNS): > 100 µM
- TGI (SF-295 CNS): 8.16 µM
- TGI (SF-539 CNS): 34.2 µM
- TGI (SK-MEL-2 melanoma): 47 µM
- TGI (SK-MEL-28 melanoma): 73.8 µM
- TGI (SK-MEL-5 melanoma): > 100 µM
- TGI (SK-OV-3 ovarian): 59.7 µM
- TGI (SN12C renal): 64.4 µM
- TGI (SNB-19 CNS): > 100 µM
- TGI (SR leukemia): 51.2 µM
- TGI (SW-620 colon): > 100 µM
- TGI (T-47D breast): 28.2 µM
- TGI (TK-10 renal): > 100 µM
- TGI (U251 CNS): > 100 µM
- TGI (UACC-257 melanoma): > 100 µM
- TGI (UACC-62 melanoma): > 100 µM
- TGI (UO-31 renal): 99.1 µM
